Assay results taken from patent US20050196492A1, “Food preservative method and system using vanillin and constituent having isothiocynate compound” (priority 2004, published 2005).

Columns and labels:
[1] = test system: Aspergillus niger; test: Antimicrobial properties of VOM (Wasaouro vapor) alone in MRE package, growth/no growth; type: cell-based; details: AIT by gas chromatography at time zero, 25° C., seven days
Description: (§1) Similarly, the antimicrobial properties of VOM (without vanillin) were evaluated against the four organisms shown in Table I. In order to evaluate the antimicrobial properties of VOM against each of these foregoing organisms, the modeling system employed several MRE packages. Each MRE package contained two Petri dishes. One Petri dish, 100 mm×15 mm, contained a medium and a selected organism. […] The cellulose filter pad for each 60 mm×15 mm Petri dish received a measured quantity of Wasaouro®. A stock solution of Wasaouro® powder was made and volumes of 100, 200, 400, 600, 800 and 1000 μl were added respectively to the filter pads of the 60 mm×15 mm Petri dishes for each group. […] The amount of the volatile active component of Wasaouro®, allyl isothiocyanate, was determined using gas chromatography. Each Petri dish in the first group was inoculated with Penicillium notatum, inoculum 10^5 spores/ml. Each Petri dish in the first group was then uncovered and placed in its own MRE impermeable laminated package. Similarly, each Petri dish in the second group of Petri dishes was inoculated with Rhizopus stolonifer, inoculum 10^5 spores/ml. Each Petri dish in the second group was then uncovered and then placed in its own MRE impermeable laminated package. In a similar manner, each Petri dish in the third group of Petri dishes was inoculated with Aspergillus niger, inoculum 10^5 spores/ml. Each Petri dish in the third group was then uncovered and then placed in its own MRE impermeable laminated package. Similarly, each Petri dish in the fourth group of Petri dishes was inoculated with Saccharomycopsis fibuligera, inoculum 10^5 spores/ml. Each Petri dish in the fourth group was then uncovered and then placed in its own MRE impermeable laminated package. All MRE packages (for all groups of Petri dishes) were then incubated at 25° C. for seven days. The determination of effectiveness of VOM as an antimicrobial agent was based on a growth or no growth basis. Petri dishes with no growth were left out for seven days after removal from the MRE package to ensure that there was no additional growth. For each experiment, a set of control MRE packages were made with the various concentrations of Wasaouro®. These control packages were used to extrapolate the relative amounts of allyl isothiocyanate in the experimental MRE packages at time zero.

[2] = test system: Penicillium notatum; test: as above; type: cell-based; details: AIT by gas chromatography at time zero, 25° C., seven days
Description: as §1

[3] = test system: Rhizopus stolonifer; test: as above; type: cell-based
Description: as §1

[4] = test system: Saccharomycopsis fibuligera; test: as above; type: cell-based; details: AIT by gas chromatography at time zero, 25° C., seven days
Description: as §1

[5] = test system: Aspergillus niger; test: Combination of vanillin and VOM (AIT) in MRE package, growth grid; type: cell-based; details: for growth of Aspergillus niger: Vanillin 0 ppm
Description: (§2) Four bread spoilage organisms were used in determining the inhibition properties of vanillin and VOM: (1) Penicillium notatum, (2) Rhizopus stolonifer, (3) Aspergillus niger and (4) Saccharomycopsis fibuligera. For purposes of this analysis, Wasaouro® was used as the source of VOM. The antimicrobial tests were conducted in MRE air-impermeable laminated packages without bread. Petri dishes containing the appropriate growth medium were inoculated with a selected spoilage organism and then sealed with various concentrations of vanillin and/or Wasaouro®. The vanillin was incorporated directly into the growth medium while the Wasaouro® was kept separate from the organism within the MRE package. […] Wasaouro® was effective at low headspace concentrations (e.g. 17 μg/L (AIT)) with the exception of Rhizopus stolonifer which is resistant to AIT even at much higher concentrations.
Next, both antimicrobial agents were tested against two of the more resistant organisms, Rhizopus stolonifer and Aspergillus niger.

[6] = test system: Rhizopusus stolonifer; test: as above; type: cell-based, Rhizopus stolonifer; details: Vanillin 0 ppm
Description: as §2

[7] = test system: Rhizopusus stolonifer and Aspergillus niger; test: Combination of vanillin and VOM (AIT) in MRE package, growth grid, both fungi; type: cell-based, Rhizopus stolonifer and Aspergillus niger; details: Vanillin 0 ppm
Description: as §2

## C=CCN=C=S [AIT, allyl isothiocyanate]
[1]
  Effective Amount Of Allyl Isothiocyanate: ˜17 ppm
[2]
  Effective Amount Of Allyl Isothiocyanate: ˜17 ppm
[3]; Wasaouro vapor in MRE package, AIT by gas chromatography at time zero, 25° C., seven days
  Effective Amount Of Allyl Isothiocyanate: >470 ppm
[3]; even at much higher concentrations than 17 μg/L
  susceptibility of Rhizopus stolonifer to AIT: resistant
[4]
  Effective Amount Of Allyl Isothiocyanate: ˜8 ppm
[5]
  sensitivity of Aspergillus niger to AIT: very sensitive
[5]; AIT 55 ug/L
  growth of Aspergillus niger: Growth
[5]; AIT 145 ug/L
  growth of Aspergillus niger: N/G
[5]; AIT 150 ug/L
  growth of Aspergillus niger: Growth
[5]; AIT 420 ug/L
  growth of Aspergillus niger: N/G
[5]; AIT 465 ug/L
  growth of Aspergillus niger: N/G
[5]; AIT 905 ug/L
  growth of Aspergillus niger: N/G
[6]; AIT 55 ug/L
  growth of Rhizopusus stolonifer: Growth
[6]; AIT 145 ug/L
  growth of Rhizopusus stolonifer: Growth
[6]; AIT 150 ug/L
  growth of Rhizopusus stolonifer: Growth
[6]; AIT 420 ug/L
  growth of Rhizopusus stolonifer: Growth
[6]; AIT 465 ug/L
  growth of Rhizopusus stolonifer: Growth
[6]; AIT 905 ug/L
  growth of Rhizopusus stolonifer: Growth
[7]; AIT 55 ug/L
  growth of Rhizopusus stolonifer and Aspergillus niger: Growth
[7]; AIT 145 ug/L
  growth of Rhizopusus stolonifer and Aspergillus niger: Growth
[7]; AIT 150 ug/L
  growth of Rhizopusus stolonifer and Aspergillus niger: Growth
[7]; AIT 420 ug/L
  growth of Rhizopusus stolonifer and Aspergillus niger: Growth
[7]; AIT 465 ug/L
  growth of Rhizopusus stolonifer and Aspergillus niger: Growth
[7]; AIT 905 ug/L
  growth of Rhizopusus stolonifer and Aspergillus niger: Growth
